One assay addresses human Nav1.8 (Homo sapiens (Human), UniProt Q9Y5Y9). Put plainly: FRET-based membrane potential assay, recombinant human sodium channel Nav1.8. It is filed as cell-based. The following applies: HEK293 cells stably expressing recombinant human Nav1.8; depolarization with veratridine (EC80) + scorpion venom. The procedure, abridged: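 HEK293 cells stably expressing Nav1.8 were loaded with CC2-DMPE/DiSBAC2(3) FRET voltage dyes. Compounds were added 3 min before depolarization with EC80 veratridine plus scorpion venom. The F440-480/F565-625 ratio was read on FLIPR; IC50 came from four-parameter Hill fits.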

In assay [1] the test system is MIA-induced osteoarthritic pain in rats. Put plainly: Osteoarthritic (OA) pain induced by sodium monoiodoacetate (MIA), hind limb grip force. Type of assay: in vivo, rat. The following applies: male Sprague Dawley rats, grip force 20 days after MIA injection. The procedure: Osteoarthritic (OA) Pain Induced by Sodium Monoiodoacetate (MIA)
Pain behavior was assessed by measurement of hind limb grip force (GF) in adult osteoarthritic rats. Male Sprague Dawley rats, obtained from Charles River Laboratories, (Wilmington, Mass.), weighing 150-175 g, were injected in the unilateral knee join with a single intra-articular injection of sodium monoiodoacetate (MIA, 3 mg/rat). All rats were tested at 20 days following MIA injection. A behavioral measure of activity-induced pain was carried out. Measurements of the peak hind limb grip force were conducted by recording the maximum compressive force (CFmax), in grams of force, exerted on a hind limb strain gauge setup, in a commercially available grip force measurement system (Columbus Instruments, Columbus, Ohio).
During testing, each rat was gently restrained by grasping it around its rib cage and then allowed to grasp the wire mesh frame attached to the strain gauge. The experimenter then moved the animal in a rostral-to-caudal direction until the grip was broken. Each rat was sequentially tested twice at an approximately 2-3 minute interval to obtain a raw mean grip force (CFmax). This raw mean grip force data was in turn converted to a maximum hindlimb cumulative compressive force (CFmax), as the grams of force/kg of body weight, for each animal.
For evaluating the compound effects, the hind limb grip force was conducted 20 days following the intra-articular injection of MIA. A group of age-matched nave (not injected with MIA) animals was added as a comparator to the drug-dosed groups. The vehicle control response for each group of MIA-treated animals was defined as the 0% response (0% effect), whereas the nave control group was defined as the normal response and as 100% effect. The % effect for each dose group was expressed as % return of response to normalcy, compared to the nave group. A percent maximal possible effect (% MPE) of testing compound was calculated according to the formula: (Treatment CFmax−Vehicle CFmax)/Vehicle CFmax]×100). Higher % effect numbers indicate increased relief from the pain in the model, with 100% indicating a return to the level of response seen in normal (non-osteoarthritic) animals. All experiments evaluating drug effects in this model were conducted in a randomized blinded fashion.
The animals were housed in Association for Assessment and Accreditation of Laboratory Animal Care (AAALAC) approved facilities at AbbVie Inc. in a temperature-regulated environment under a controlled 12-hour light-dark cycle, with lights on at 6:00 a.m. Food and water were available ad libitum at all times except during testing. All testing was done following procedures outlined in protocols approved by AbbVie Inc.'s Institutional Animal Care and Use Committee.

The target in a further assay is human Nav1.7 (Homo sapiens (Human), UniProt Q15858). Briefly: FRET-based membrane potential assay, recombinant human sodium channel Nav1.7. It is filed as cell-based. The following applies: HEK293 cells stably expressing recombinant human Nav1.7; depolarization with veratridine (EC80) + scorpion venom. In short, it runs like this: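 IC50 derived by four-parameter Hill fit of percent inhibition of depolarization, measured as peak F440-480/F565-625 ratio over baseline. Stable human Nav1.7 HEK293 cells, dye-loaded with CC2-DMPE and DiSBAC2(3)/VABSC-1 at room temperature, received compound 3 min ahead of veratridine (EC80) plus scorpion venom.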

One may read the IC50 as the concentration at which inhibition is half-maximal.

Sequence of human Nav1.7 (Q15858 whole entry): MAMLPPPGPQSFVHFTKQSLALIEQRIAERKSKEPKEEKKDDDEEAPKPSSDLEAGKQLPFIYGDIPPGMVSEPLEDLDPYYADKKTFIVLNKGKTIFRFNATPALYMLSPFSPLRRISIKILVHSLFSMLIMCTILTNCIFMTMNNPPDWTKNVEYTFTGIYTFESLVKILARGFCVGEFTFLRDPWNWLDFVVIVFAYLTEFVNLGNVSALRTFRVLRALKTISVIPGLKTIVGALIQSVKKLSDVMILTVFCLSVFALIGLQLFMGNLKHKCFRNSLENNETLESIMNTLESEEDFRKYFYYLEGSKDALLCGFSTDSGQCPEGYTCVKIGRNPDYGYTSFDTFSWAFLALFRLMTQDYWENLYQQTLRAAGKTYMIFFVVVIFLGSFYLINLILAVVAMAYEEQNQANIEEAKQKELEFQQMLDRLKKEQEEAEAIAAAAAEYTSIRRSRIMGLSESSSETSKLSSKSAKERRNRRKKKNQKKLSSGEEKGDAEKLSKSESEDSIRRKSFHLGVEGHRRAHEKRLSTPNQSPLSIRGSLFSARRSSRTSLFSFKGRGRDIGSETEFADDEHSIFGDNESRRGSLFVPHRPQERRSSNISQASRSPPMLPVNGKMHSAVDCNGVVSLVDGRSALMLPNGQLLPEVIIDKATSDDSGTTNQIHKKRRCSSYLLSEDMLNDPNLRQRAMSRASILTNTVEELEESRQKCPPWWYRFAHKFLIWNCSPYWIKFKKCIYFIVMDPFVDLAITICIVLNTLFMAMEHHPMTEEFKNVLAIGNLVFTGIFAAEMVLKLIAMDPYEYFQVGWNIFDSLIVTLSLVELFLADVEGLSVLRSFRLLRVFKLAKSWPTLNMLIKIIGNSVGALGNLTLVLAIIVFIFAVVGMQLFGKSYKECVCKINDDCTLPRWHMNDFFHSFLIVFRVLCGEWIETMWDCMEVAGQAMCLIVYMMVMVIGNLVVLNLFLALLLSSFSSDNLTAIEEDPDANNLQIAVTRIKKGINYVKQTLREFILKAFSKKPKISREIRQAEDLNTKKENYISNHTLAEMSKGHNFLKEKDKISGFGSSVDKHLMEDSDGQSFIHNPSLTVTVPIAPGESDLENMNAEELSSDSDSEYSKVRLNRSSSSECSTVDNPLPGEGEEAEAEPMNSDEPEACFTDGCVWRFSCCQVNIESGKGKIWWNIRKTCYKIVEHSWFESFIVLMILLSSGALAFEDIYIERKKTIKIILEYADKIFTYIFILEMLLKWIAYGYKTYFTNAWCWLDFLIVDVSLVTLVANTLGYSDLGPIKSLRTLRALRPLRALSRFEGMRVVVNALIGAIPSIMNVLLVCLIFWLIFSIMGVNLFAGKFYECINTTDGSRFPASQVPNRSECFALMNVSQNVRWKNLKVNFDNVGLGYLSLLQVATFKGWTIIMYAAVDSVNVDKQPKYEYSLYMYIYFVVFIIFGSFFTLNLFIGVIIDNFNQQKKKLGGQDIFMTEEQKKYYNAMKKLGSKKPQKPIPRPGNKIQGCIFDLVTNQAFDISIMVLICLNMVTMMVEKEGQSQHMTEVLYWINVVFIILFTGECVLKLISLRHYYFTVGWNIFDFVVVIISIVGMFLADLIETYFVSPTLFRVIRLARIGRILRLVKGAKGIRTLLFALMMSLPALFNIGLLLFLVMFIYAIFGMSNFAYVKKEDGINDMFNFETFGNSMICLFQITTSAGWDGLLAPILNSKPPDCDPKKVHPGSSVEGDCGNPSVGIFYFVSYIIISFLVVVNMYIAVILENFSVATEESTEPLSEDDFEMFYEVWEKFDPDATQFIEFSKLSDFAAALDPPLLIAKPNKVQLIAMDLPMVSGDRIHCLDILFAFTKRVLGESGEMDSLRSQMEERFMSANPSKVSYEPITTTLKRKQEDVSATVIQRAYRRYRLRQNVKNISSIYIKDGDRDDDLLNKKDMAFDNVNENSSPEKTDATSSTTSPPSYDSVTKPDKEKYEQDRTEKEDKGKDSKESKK
Sequence of human Nav1.8 (Q9Y5Y9 whole entry): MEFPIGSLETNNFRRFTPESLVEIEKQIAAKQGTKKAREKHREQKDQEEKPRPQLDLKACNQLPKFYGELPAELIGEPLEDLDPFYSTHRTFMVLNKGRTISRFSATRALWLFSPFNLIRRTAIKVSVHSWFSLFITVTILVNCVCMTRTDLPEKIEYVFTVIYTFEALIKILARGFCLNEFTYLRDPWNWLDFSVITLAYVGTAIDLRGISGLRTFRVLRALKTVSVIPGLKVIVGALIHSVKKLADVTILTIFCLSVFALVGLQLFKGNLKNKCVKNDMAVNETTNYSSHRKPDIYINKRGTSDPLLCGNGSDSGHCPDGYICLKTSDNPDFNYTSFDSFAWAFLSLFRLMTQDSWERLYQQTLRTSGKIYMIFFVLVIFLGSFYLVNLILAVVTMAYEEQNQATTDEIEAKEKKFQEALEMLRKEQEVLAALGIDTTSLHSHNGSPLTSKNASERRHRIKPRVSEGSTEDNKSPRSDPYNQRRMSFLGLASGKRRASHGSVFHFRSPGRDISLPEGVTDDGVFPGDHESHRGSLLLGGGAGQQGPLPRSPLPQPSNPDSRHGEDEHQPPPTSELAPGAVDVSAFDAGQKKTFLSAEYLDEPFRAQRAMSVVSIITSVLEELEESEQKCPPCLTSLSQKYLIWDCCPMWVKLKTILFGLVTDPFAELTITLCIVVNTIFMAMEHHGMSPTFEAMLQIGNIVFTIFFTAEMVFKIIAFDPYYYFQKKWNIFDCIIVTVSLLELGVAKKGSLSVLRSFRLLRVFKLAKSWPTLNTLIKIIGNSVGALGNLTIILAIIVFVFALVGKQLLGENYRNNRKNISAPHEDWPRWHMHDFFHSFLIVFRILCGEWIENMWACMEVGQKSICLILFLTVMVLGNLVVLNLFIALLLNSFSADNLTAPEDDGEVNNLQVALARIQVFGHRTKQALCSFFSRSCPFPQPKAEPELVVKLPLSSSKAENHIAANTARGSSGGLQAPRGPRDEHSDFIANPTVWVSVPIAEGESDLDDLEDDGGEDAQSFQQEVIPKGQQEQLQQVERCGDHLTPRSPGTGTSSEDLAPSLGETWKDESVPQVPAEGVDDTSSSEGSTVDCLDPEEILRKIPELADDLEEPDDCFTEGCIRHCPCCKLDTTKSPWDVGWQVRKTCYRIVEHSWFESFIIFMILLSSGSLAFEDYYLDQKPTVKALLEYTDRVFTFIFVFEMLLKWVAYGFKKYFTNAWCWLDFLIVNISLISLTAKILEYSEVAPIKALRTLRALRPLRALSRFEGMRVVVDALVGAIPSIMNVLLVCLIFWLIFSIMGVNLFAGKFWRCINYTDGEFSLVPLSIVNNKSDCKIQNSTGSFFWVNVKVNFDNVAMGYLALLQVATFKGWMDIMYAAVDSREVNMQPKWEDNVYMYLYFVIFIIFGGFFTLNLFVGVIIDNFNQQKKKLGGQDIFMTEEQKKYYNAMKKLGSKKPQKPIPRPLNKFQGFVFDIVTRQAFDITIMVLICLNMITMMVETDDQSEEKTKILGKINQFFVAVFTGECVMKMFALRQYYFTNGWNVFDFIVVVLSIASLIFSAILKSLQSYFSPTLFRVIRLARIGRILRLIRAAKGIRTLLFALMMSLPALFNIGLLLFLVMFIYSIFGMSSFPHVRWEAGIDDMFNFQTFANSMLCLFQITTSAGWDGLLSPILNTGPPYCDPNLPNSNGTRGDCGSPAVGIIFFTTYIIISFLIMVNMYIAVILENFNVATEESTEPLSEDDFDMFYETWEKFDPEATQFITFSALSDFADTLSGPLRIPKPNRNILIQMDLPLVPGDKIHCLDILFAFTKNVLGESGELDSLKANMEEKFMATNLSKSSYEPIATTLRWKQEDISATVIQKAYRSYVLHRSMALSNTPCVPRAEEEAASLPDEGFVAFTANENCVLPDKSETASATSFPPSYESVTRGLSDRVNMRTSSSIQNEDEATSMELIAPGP

Turning to `O=C1N(Cc2nnc(C3CC3)o2)CCN1c1cccc2c1cnn2-c1ccccc1F` [Example 49, 1-[(5-cyclopropyl-1,3,4-oxadiazol-2-yl)methyl]-3-[1-(2-fluorophenyl)-1H-indazol-4-yl]imidazolidin-2-one], the 50% inhibitory concentration (IC50) turned out to be 0.538 µM at human Nav1.8 and 2.32 µM on human Nav1.7. The “OA MPE (%)” value in assay [1] (OA dose 10 mg/kg) worked out at 66%.
In the same order, the values of `CCOc1nnc(CN2CCN(c3cccc4c3cnn4-c3ccccc3F)C2=O)s1` [Example 47, 1-[(5-ethoxy-1,3,4-thiadiazol-2-yl)methyl]-3-[1-(2-fluorophenyl)-1H-indazol-4-yl]imidazolidin-2-one] are 3.98 µM, 1.49 µM and 19%.
In the case of `O=C1N(c2cccc3c2cnn3-c2ccccc2F)CCN1[C@@H]1CCOC1` [Example 32, 1-[1-(2-fluorophenyl)-1H-indazol-4-yl]-3-[(3R)-tetrahydrofuran-3-yl]imidazolidin-2-one], the IC50 was determined as 2.54 µM on human Nav1.8 and 4.23 µM on human Nav1.7. In addition, the “OA MPE (%)” value in assay [1] (OA dose 30 mg/kg) worked out at 65%.
In the same order, the values of `Cc1cccc(-n2ncc3c(N4CCN(CC(=O)N5CC[C@H](F)C5)C4=O)cccc32)c1` [Example 56, 1-{2-[(3S)-3-fluoropyrrolidin-1-yl]-2-oxoethyl}-3-[1-(3-methylphenyl)-1H-indazol-4-yl]imidazolidin-2-one] are 4.63 µM, 1.83 µM and 70%.
As for `CCc1cc(CN2CCN(c3cccc4c3cnn4-c3ccccc3F)C2=O)on1` [Example 45, 1-[(3-ethyl-1,2-oxazol-5-yl)methyl]-3-[1-(2-fluorophenyl)-1H-indazol-4-yl]imidazolidin-2-one], in assay [1] (OA dose 10 mg/kg), the “OA MPE (%)” value was 43%. Besides, the IC50 at human Nav1.7 came out at 1.12 µM.
Take `C[C@H]1CN(c2cccc3c2cnn3-c2ccccc2F)C(=O)N1Cc1ncco1` [Example 38, (4S)-1-[1-(2-fluorophenyl)-1H-indazol-4-yl]-4-methyl-3-(1,3-oxazol-2-ylmethyl)imidazolidin-2-one]: the “OA MPE (%)” value in assay [1] (OA dose 10 mg/kg) was found to be 33%. Further, the IC50 on human Nav1.7 is 1.39 µM.
As to `O=C(CN1CCCN(c2cccc3c2cnn3-c2ccccc2F)C1=O)N1CC[C@H](F)C1` [Example 23, 1-[1-(2-fluorophenyl)-1H-indazol-4-yl]-3-{2-[(3S)-3-fluoropyrrolidin-1-yl]-2-oxoethyl}tetrahydropyrimidin-2(1H)-one], the “OA MPE (%)” value in assay [1] (OA dose 30 mg/kg) worked out at 45%. Further, the IC50 at human Nav1.7 amounted to 1.47 µM.
As for `O=C1N(Cc2ncco2)CCN1c1cccc2c1cnn2-c1ccc(F)cc1F` [Example 36, 1-[1-(2,4-difluorophenyl)-1H-indazol-4-yl]-3-(1,3-oxazol-2-ylmethyl)imidazolidin-2-one], the “OA MPE (%)” value in assay [1] (OA dose 10 mg/kg) stood at 27%. Besides, the IC50 on human Nav1.7 was found to be 0.643 µM.
As for `CC(C)(C)C(O)CN1CCN(c2cccc3c2cnn3-c2ccccc2F)C1=O` (stereo not shown) [Example 22, 1-[1-(2-fluorophenyl)-1H-indazol-4-yl]-3-(2-hydroxy-3,3-dimethylbutyl)imidazolidin-2-one], in assay [1] (OA dose 30 mg/kg), the “OA MPE (%)” value was 38%. For the same molecule, at human Nav1.7, the concentration for half-maximal inhibition (IC50) turned out to be 3 µM.
With `O=C1N(c2cccnc2)CCN1c1cccc2c1cnn2-c1ccccc1F` [Example 19, 1-[1-(2-fluorophenyl)-1H-indazol-4-yl]-3-(pyridin-3-yl)imidazolidin-2-one], the “OA MPE (%)” value in assay [1] (OA dose 10 mg/kg) is 67%. In addition, the IC50 on human Nav1.7 came to 2.92 µM.
As to `Cc1nccnc1CN1CCN(c2cccc3c2cnn3-c2ccccc2F)C1=O` [Example 43, 1-[1-(2-fluorophenyl)-1H-indazol-4-yl]-3-[(3-methylpyrazin-2-yl)methyl]imidazolidin-2-one], in assay [1] (OA dose 30 mg/kg), the “OA MPE (%)” value worked out at 71%. In addition, the half-maximal inhibitory concentration (IC50) on human Nav1.7 stood at 0.915 µM.
For the molecule `Cc1cnc(CN2CCN(c3cccc4c3cnn4-c3ccccc3F)C2=O)o1` [Example 41, 1-[1-(2-fluorophenyl)-1H-indazol-4-yl]-3-[(5-methyl-1,3-oxazol-2-yl)methyl]imidazolidin-2-one], the “OA MPE (%)” value in assay [1] (OA dose 10 mg/kg) was 47%. In addition, the 50% inhibitory concentration (IC50) on human Nav1.7 stood at 1.57 µM.
For the molecule `O=C1N(Cc2nccs2)CCN1c1cccc2c1cnn2-c1ccccc1F` [Example 34, 1-[1-(2-fluorophenyl)-1H-indazol-4-yl]-3-(1,3-thiazol-2-ylmethyl)imidazolidin-2-one], the “OA MPE (%)” value in assay [1] (OA dose 10 mg/kg) is on record as 43%. The half-maximal inhibitory concentration (IC50) on human Nav1.7 was 0.42 µM.
As for `O=C1N(CC(=O)N2C[C@@H]3C[C@H]2CO3)CCN1c1cccc2c1cnn2-c1ccccc1F` [Example 16, 1-[1-(2-fluorophenyl)-1H-indazol-4-yl]-3-{2-[(1S,4S)-2-oxa-5-azabicyclo[2.2.1]hept-5-yl]-2-oxoethyl}imidazolidin-2-one], the “OA MPE (%)” value in assay [1] (OA dose 30 mg/kg) is listed as 67%. The IC50 at human Nav1.7 amounted to 0.738 µM.
`Cc1cnc(N2CCN(c3cccc4c3cnn4-c3ccccc3F)C2=O)nc1` [Example 33, 1-[1-(2-fluorophenyl)-1H-indazol-4-yl]-3-(5-methylpyrimidin-2-yl)imidazolidin-2-one]: the “OA MPE (%)” value in assay [1] (OA dose 10 mg/kg) was 17%. Also, the half-maximal inhibitory concentration (IC50) on human Nav1.7 came to 0.624 µM.
On to `O=C1N(Cc2cocn2)CCN1c1cccc2c1cnn2-c1ccc(F)cc1F` [Example 37, 1-[1-(2,4-difluorophenyl)-1H-indazol-4-yl]-3-(1,3-oxazol-4-ylmethyl)imidazolidin-2-one], for which the “OA MPE (%)” value in assay [1] (OA dose 10 mg/kg) turned out to be 35%. Moreover, the concentration for half-maximal inhibition (IC50) at human Nav1.7 turned out to be 0.392 µM.
On to `Cc1nnc(CN2CCN(c3cccc4c3cnn4-c3ccccc3F)C2=O)o1` [Example 44, 1-[1-(2-fluorophenyl)-1H-indazol-4-yl]-3-[(5-methyl-1,3,4-oxadiazol-2-yl)methyl]imidazolidin-2-one], for which, in assay [1] (OA dose 30 mg/kg), the “OA MPE (%)” value was 71%. Further, the IC50 at human Nav1.7 was 2.94 µM.
In the case of `O=C1N(Cc2cscn2)CCN1c1cccc2c1cnn2-c1ccccc1F` [Example 39, 1-[1-(2-fluorophenyl)-1H-indazol-4-yl]-3-(1,3-thiazol-4-ylmethyl)imidazolidin-2-one], the “OA MPE (%)” value in assay [1] (OA dose 10 mg/kg) stood at 38%. The IC50 at human Nav1.7 is 0.301 µM.
With `O=C1N(Cc2nnco2)CCN1c1cccc2c1cnn2-c1ccccc1F` [Example 29, 1-[1-(2-fluorophenyl)-1H-indazol-4-yl]-3-(1,3,4-oxadiazol-2-ylmethyl)imidazolidin-2-one], the “OA MPE (%)” value in assay [1] (OA dose 10 mg/kg) is given as 46%. For the same molecule, the IC50 at human Nav1.7 is 2.19 µM.
`Cc1csc(CN2CCN(c3cccc4c3cnn4-c3ccccc3F)C2=O)n1` [Example 24, 1-[1-(2-fluorophenyl)-1H-indazol-4-yl]-3-[(4-methyl-1,3-thiazol-2-yl)methyl]imidazolidin-2-one]: the “OA MPE (%)” value in assay [1] (OA dose 10 mg/kg) is recorded as 62%. In addition, the concentration for half-maximal inhibition (IC50) at human Nav1.7 was found to be 0.338 µM.
Consider `Cc1nnc(CN2CCN(c3cccc4c3cnn4-c3ccccc3F)C2=O)s1` [Example 40, 1-[1-(2-fluorophenyl)-1H-indazol-4-yl]-3-[(5-methyl-1,3,4-thiadiazol-2-yl)methyl]imidazolidin-2-one], for which the “OA MPE (%)” value in assay [1] (OA dose 10 mg/kg) was 41%. Further, the IC50 on human Nav1.7 worked out at 3.15 µM.
`O=C1N(CC(=O)N2C[C@@H](F)C[C@@H]2c2cc(F)ccc2F)CCN1c1cccc2c1cnn2-c1ccccc1F` [Example 18, 1-{2-[(2R,4S)-2-(2,5-difluorophenyl)-4-fluoropyrrolidin-1-yl]-2-oxoethyl}-3-[1-(2-fluorophenyl)-1H-indazol-4-yl]imidazolidin-2-one]: the “OA MPE (%)” value in assay [1] (OA dose 10 mg/kg) came out at 65%. At human Nav1.7, the half-maximal inhibitory concentration (IC50) amounted to 0.578 µM.
Consider `O=C1N(Cc2nnc(C3CC3)s2)CCN1c1cccc2c1cnn2-c1ccccc1F` [Example 30, 1-[(5-cyclopropyl-1,3,4-thiadiazol-2-yl)methyl]-3-[1-(2-fluorophenyl)-1H-indazol-4-yl]imidazolidin-2-one], for which, in assay [1] (OA dose 10 mg/kg), the “OA MPE (%)” value is listed as 80%. In addition, at human Nav1.7, the IC50 turned out to be 1.3 µM.
For `O=C1N(Cc2cnccn2)CCN1c1cccc2c1cnn2-c1ccccc1F` [Example 35, 1-[1-(2-fluorophenyl)-1H-indazol-4-yl]-3-(pyrazin-2-ylmethyl)imidazolidin-2-one], in that order: 19% and 0.747 µM.

Values taken from patent US9783527B2, “Indazole ureas and method of use” (AbbVie Inc., priority 2014, dated 2017).
